Values belong to the molecule of their own block, whether it stands above or below them.
Columns and labels:
vitamin D-deficient rats = test: Serum calcium in vitamin D-deficient hyperparathyroid rats, dosing thrice weekly for nearly four weeks; assay type: in vivo, Sprague-Dawley rats
Method: Oral Formulations. Cinacalcet was weighed and mixed with ethanol (at least 21 mcL ethanol/mg cinacalcet) for approximately 10 minutes. After a clear solution was produced, the clear solution was mixed with an ethanolic solution of 2MD or vitamin D analog as a control. The two ethanolic solutions were mixed (approx. 15 min.) with Neobee oil so that there was no more than 14.1% of ethanol in the final dosing solution. Doses were delivered in a 0.75 mL/kg dose volume.
Intravenous Formulations. Etelcalcitide was weighed and mixed with propylene glycol (up to 5 mg etelcalcitide/ml propylene glycol) for approximately 1 minute. After a clear solution was produced ([…]), the clear solution was mixed with an ethanolic solution of 2MD or vitamin D analog as a control (no more than ˜0.6% ethanol in the final solution) for approximately 1 min. Doses were delivered in a 1 mL/kg dose volume.
Sprague-Dawley rats were made vitamin D-deficient and then placed on a high containing lactose (10%) and elevated levels of calcium (2%) and phosphorus (1.25%). After hyperparathyroidism was established in the rats, animals were administered cinacalcet or etelcalcitide, 2MD or the combination of the two thrice weekly for nearly four weeks. Blood was collected 48-72 hours after the last dose was given and PTH (Immutopics Intact PTH kit) and serum calcium (Perkin Elmer) measured. […]

[1] = test system: MRL/MpJ-FAS^1pr (MRL/lpr) mouse model of systemic lupus erythematosus; conditions: calcitriol administered through the diet; cited from earlier work

- serum calcium, 2MD alone (vitamin D-deficient rats; 1 ng 2MD/kg bw): unaffected
Structure (SMILES): C=C1[C@H](O)CC(=C/C=C2\CCC[C@@]3(C)C2CCC3[C@@H](C)CCCC(C)(C)O)C[C@H]1O (stereo partly drawn) [2MD, 2-methylene-19-nor-(20S)-1α,25-dihydroxyvitamin D3]

Structure (SMILES): C=C1/C(=C\C=C2/CCC[C@]3(C)[C@@H]([C@H](C)CCCC(C)(C)O)CC[C@@H]23)C[C@@H](O)C[C@@H]1O [calcitriol, 1α,25-(OH)2D3]
- hypercalcemia accompanying treatment [1]: severe hypercalcemia always accompanied this treatment
- proteinuria [1]: completely prevents proteinuria

- decrease of serum calcium, cinacalcet alone (vitamin D-deficient rats; cinacalcet alone): 0.5 mg%
Structure (SMILES): C[C@@H](NCCCc1cccc(C(F)(F)F)c1)c1cccc2ccccc12 [cinacalcet, (R)—N-[1-(1-naphthyl)ethyl]-3-[3-(trifluoromethyl)phenyl] propan-1-amine]
